Read-outs that look alike come from different tables or passages of the source. Residues, ends and D or L forms follow the SMILES beside them.
Experiments:
[1] = analgesic action of the novel peptide; conditions: result in words; no test described
[2] = system: opiate receptor (brain); assay: binding strength with the opiate receptor (brain); conditions: for binding strength with the opiate receptor (brain) relative to human beta-endorphin: times greater than human beta-endorphin; for binding activity relative to morphine: times greater than morphine
Procedure: The above experiment was carried out by the procedure as described in The Journal of Biological Chemistry, Vol. 254, No. 8, p. 2610 (1979).

[3] = result in words
[4] = rats, intracerebral route; cited from earlier work
[5] = mice, intracerebral route; cited from earlier work

With `CC[C@H](C)[C@H](NC(=O)[C@H](Cc1c[nH]cn1)NC(=O)[C@H](CCCCN)NC(=O)[C@H](CC(C)C)NC(=O)[C@H](CC(C)C)NC(=O)[C@@H](NC(=O)[C@@H](NC(=O)[C@H](CC(C)C)NC(=O)[C@@H]1CCCN1C(=O)[C@H](CCCCN)NC(=O)[C@H](Cc1c[nH]cn1)NC(=O)[C@H](CO)NC(=O)[C@H](CCC(N)=O)NC(=O)[C@H](CCCCN)NC(=O)[C@@H](NC(=O)[C@H](Cc1ccc(O)cc1)NC(=O)[C@@H]1CCCN1C(=O)[C@H](CCCCN)NC(=O)[C@H](CCSC)NC(=O)[C@H](Cc1ccccc1)NC(=O)CNC(=O)CNC(=O)[C@@H](N)Cc1ccc(O)cc1)[C@@H](C)O)[C@@H](C)CC)[C@@H](C)O)C(=O)N[C@H](C(=O)N[C@@H](CC(C)C)C(=O)N[C@@H](CCCCN)C(=O)N[C@@H](CC(N)=O)C(=O)N[C@@H](CCC(=O)O)C(=O)N[C@@H](CCC(N)=O)C(=O)O)[C@@H](C)O` [Compound (I), H-Tyr-Gly-Gly-Phe-Met-Lys-Pro-Tyr-Thr-Lys-Gln-Ser-His-Lys-Pro-Leu-Ile-Thr- Leu-Leu-Lys-His-Ile-Thr-Leu-Lys-Asn-Glu-Gln-OH] (H-YGGFMKPYTKQSHKPLITLLKHITLKNEQ-OH) the analgesic action [1] was “excellent analgesic action”, the “binding strength with the opiate receptor (brain) relative to human beta-endorphin” value ([2]; with the addition of sodium) was “about 3.05 times” and the “binding activity relative to morphine” value ([2]; with the addition of sodium) was “about 3.74 times”. The “binding strength with the opiate receptor (brain) relative to human beta-endorphin” value ([2]; without the addition of sodium) was “about 2.71 times”, the “binding activity relative to morphine” value ([2]; without the addition of sodium) was “about 4.6 times” and the toxicity [3] was “very low toxicity”.
In the case of `CC[C@H](C)[C@H](NC(=O)[C@H](Cc1c[nH]cn1)NC(=O)[C@H](CCCCN)NC(=O)[C@H](CC(C)C)NC(=O)[C@H](CC(C)C)NC(=O)[C@@H](NC(=O)[C@@H](NC(=O)[C@H](CC(C)C)NC(=O)[C@@H]1CCCN1C(=O)[C@H](CCCCN)NC(=O)[C@H](Cc1c[nH]cn1)NC(=O)[C@H](CO)NC(=O)[C@H](CCC(N)=O)NC(=O)[C@H](CCCCN)NC(=O)[C@@H](NC(=O)[C@H](Cc1ccc(O)cc1)NC(=O)[C@@H]1CCCN1C(=O)[C@H](CCCCN)NC(=O)[C@H](CCSC)NC(=O)[C@H](Cc1ccccc1)NC(=O)CNC(=O)CNC(=O)[C@H](Cc1ccc(O)cc1)NC(C)=O)[C@@H](C)O)[C@@H](C)CC)[C@@H](C)O)C(=O)N[C@H](C(=O)N[C@@H](CC(C)C)C(=O)N[C@@H](CCCCN)C(=O)N[C@@H](CC(N)=O)C(=O)N[C@@H](CCC(=O)O)C(=O)N[C@@H](CCC(N)=O)C(=O)O)[C@@H](C)O` [salmon endorphin, reference compound] (Ac-YGGFMKPYTKQSHKPLITLLKHITLKNEQ-OH), the “binding to the opiate receptor” value ([2]; result in words) is reported as “in no way binds to the opiate receptor”.
For “beta-endorphin: brain peptide in mammals, a particularly important physiological peptide among the endorphins (YGGFMTSEKSQTPLVTLFKNAIIKNAYKKGE; Beta-endorphin; UniProt P01189 237-267, looked up)”, the analgesic effect [4] is listed as “exerts an analgesic effect” and the analgesic effect [5] is listed as “exerts an analgesic effect”.

From US4358440A, “Polypeptide and its production and use” (Takeda Chemical Industries, Ltd., priority 1980, dated 1982)
